According to patent US20250092065A1, “2-(INDAZOL-5-YL)-6-(PIPERIDIN-4-YL)-1,7-NAPHTHYRIDINE DERIVATIVES AND RELATED COMPOUNDS AS MODULATORS FOR SPLICING NUCLEIC ACIDS AND FOR THE TREATMENT OF PROLIFERATIVE DISEASES” (REMIX THERAPEUTICS INC., priority 2022, published 2025):
Like-named read-outs stand apart in the source and are kept apart here.

Legend:
[1] = system: MYB mRNA; assay: RT-qPCR splicing assay, MYB mRNA canonical (CJ) and alternative (AJ) junction; assay type: cell-based, human; settings: Homo sapiens; for AC50: MYB alternative junction mRNA, read-out: MYB AJ (increase in AJ mRNA, AC50)
Method in brief: (§1)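 Canonical and alternative-exon junction isoforms were quantified by RT-qPCR in cell lysates, with ΔCt against a housekeeper (GAPDH/GUSB/PPIA), then ΔΔCt vs DMSO, converted to 2^(−ΔΔCt) and percent response. K562 or A673 cells were exposed for 24 h to 11 concentrations (3-fold, top final 10 uM).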

[2] = system: SMN2 mRNA; assay: RT-qPCR splicing assay, SMN2 mRNA; assay type: cell-based, human; settings: Homo sapiens, canonical junction qPCR panel, Table 4; read-out: SMN2 IC50 (decrease in CJ mRNA levels)
Method in brief: as §1

[3] = system: MYB; assay: HiBiT protein abundance assay, MYB (K562 HiBiT knock-in); assay type: cell-based, human; settings: HiBiT knock-in K562 cells, 24 hours, top dose 10 μM
Method in brief: (§2)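 K562 HiBiT knock-in, 24 h, 37 °C, top 10 μM final, 3-fold ×10, DMSO ≤0.25%. Lytic HiBiT luminescence; PC = parental K562, NC = DMSO; 4PL IC50.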

[4] = system: HTT; assay: HiBiT protein abundance assay, HTT (K562 HiBiT knock-in); assay type: cell-based, human; settings: HiBiT knock-in K562 cells, 24 hours, top dose 10 μM
Method in brief: as §2

[5] = system: Target C; assay: HiBiT protein abundance assay, Target C (K562 HiBiT knock-in); assay type: cell-based, human; settings: HiBiT knock-in K562 cells, 24 hours, top dose 10 μM
Method in brief: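 K562 HiBiT knock-in cells (10000/well) were treated 24 h at 37° C with a 10-point 3-fold dilution series (top 10 μM final, ≤0.25% DMSO). HiBiT luminescence was read after lytic LgBiT detection. Percent response used unmodified K562 and DMSO-treated knock-in controls, and IC50 came from a four-parameter fit at 50% of untreated.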

[6] = system: K562 cells; assay: Cell Titer Glo 2.0 cell viability (toxicity) assay, K562; settings: 500 cells/well, 72 hours
[7] = MYB canonical junction mRNA, RT-qPCR, read-out: MYB CJ (decrease in CJ mRNA levels, IC50)
[8] = canonical junction qPCR panel, Table 4, read-out: MYB IC50 (decrease in CJ mRNA levels)

With `Cc1nc2c(C)c(O)c(-c3ccc4nc(N5CC[C@H](NC6CCC6)C5)ccc4n3)cc2o1` [Compound 237] as the molecule, how does the AC50 ([1]; RT-qPCR) read?
The AC50 was < 0.1 µM.

And the IC50 [1, 7]?
The IC50 was < 0.1 µM.

What about the IC50 [1, 8] of the same molecule?
The IC50 was < 0.1 µM.

What about the IC50 [2] of the same molecule?
The IC50 was < 0.1 µM.

What about the IC50 [3] of the same molecule?
Its IC50 is < 0.1 µM.

And the IC50 [4]?
Its IC50 is < 0.1 µM.

What about the IC50 [5] of the same molecule?
Its IC50 is < 0.1 µM.

What about the “Effect of Exemplary Compounds on Cell Viability, K562” value (“Effect of Exemplary Compounds” below) [6] of the same molecule?
Its value is “B (B represents 100-1000 nM)”.

Which AC50 ([1]; RT-qPCR) does the source give for `Cc1cc(-c2ccc3nc(N4CCC(NC(C)(C)C)C4)ccc3n2)nc2cn(C)nc12` (stereo not shown) [Compound 248] here?
Its AC50 is 1 to 10 µM.

And the IC50 [1, 7]?
The IC50 was 1 to 10 µM.

What about the IC50 [1, 8] of the same molecule?
The IC50 was 1 to 10 µM.

What about the IC50 [2] of the same molecule?
Its IC50 is 0.1 to 1 µM.

What about the IC50 [3] of the same molecule?
Its IC50 is 1 to 10 µM.

What about the IC50 [4] of the same molecule?
The IC50 was 0.1 to 1 µM.

And the IC50 [5]?
Its IC50 is 0.1 to 1 µM.

What about the “Effect of Exemplary Compounds” value [6] of the same molecule?
Its value is “C (C represents 1000-9999 nM)”.

Which results are given for `Cc1c(O)c(-c2ccc3nc(N4CC[C@@H](NC(C)(C)C)C4)ccc3n2)cc2cn(C)nc12` [Compound 249]?
AC50 ([1]; RT-qPCR): < 0.1 µM; IC50 [1, 7]: < 0.1 µM; IC50 [1, 8]: < 0.1 µM; IC50 [2]: < 0.1 µM; IC50 [3]: < 0.1 µM; IC50 [4]: < 0.1 µM; IC50 [5]: < 0.1 µM; Effect of Exemplary Compounds on Cell Viability, K562 [6]: A (A represents <100 nM)

What does the source list for `Cc1c(O)c(-c2ccc3nc(N4CC[C@H](NC(C)(C)C)C4)ccc3n2)cc2cn(C)nc12` [Compound 250]?
AC50 ([1]; RT-qPCR): < 0.1 µM; IC50 [1, 7]: < 0.1 µM; IC50 [1, 8]: < 0.1 µM; IC50 [2]: < 0.1 µM; IC50 [3]: < 0.1 µM; IC50 [4]: < 0.1 µM; IC50 [5]: < 0.1 µM; Effect of Exemplary Compounds on Cell Viability, K562 [6]: B (B represents 100-1000 nM)

`COc1c(-c2ccc3nc(N4CCC(NC(C)(C)C)C4)ccc3n2)cc2c[nH]nc2c1C` (stereo not shown) [Compound 251] was tested. Which AC50 ([1]; RT-qPCR) did it give?
Its AC50 is > 10 µM.

And the IC50 [1, 7]?
Its IC50 is > 10 µM.

And the IC50 [1, 8]?
The IC50 was > 10 µM.

And the IC50 [2]?
The IC50 was > 10 µM.

And the IC50 [3]?
Its IC50 is > 10 µM.

What about the IC50 [4] of the same molecule?
The IC50 was > 10 µM.

What about the IC50 [5] of the same molecule?
Its IC50 is 0.1 to 1 µM.

What about the “Effect of Exemplary Compounds” value [6] of the same molecule?
The value was “B (B represents 100-1000 nM)”.

Which AC50 ([1]; RT-qPCR) does the source give for `Cc1c(O)c(-c2ccc3nc(N4CCC(NCC5CC5)C4)ccc3n2)cc2cn(C)nc12` (stereo not shown) [Compound 284, 5-(6-{3-[(cyclopropylmethyl)amino]pyrrolidin-1-yl}-1,5-naphthyridin-2-yl)-2,7-dimethylindazol-6-ol] here?
Its AC50 is 0.1 to 1 µM.

What about the IC50 [1, 7] of the same molecule?
The IC50 was < 0.1 µM.

What about the IC50 [1, 8] of the same molecule?
Its IC50 is < 0.1 µM.

What about the IC50 [2] of the same molecule?
The IC50 was < 0.1 µM.

And the IC50 [3]?
Its IC50 is < 0.1 µM.

What about the IC50 [4] of the same molecule?
The IC50 was < 0.1 µM.

And the IC50 [5]?
Its IC50 is < 0.1 µM.

And the “Effect of Exemplary Compounds” value [6]?
The value was “B (B represents 100-1000 nM)”.

How did the AC50 ([1]; RT-qPCR) turn out when `Cc1c(O)c(-c2ccc3nc(N4CCC(NC5CCC5)C4)ccc3n2)cc2cn(C)nc12` (stereo not shown) [Compound 288, 5-{6-[3-(cyclobutylamino)pyrrolidin-1-yl]-1,5-naphthyridin-2-yl}-2,7-dimethylindazol-6-ol] was run?
Its AC50 is < 0.1 µM.

What about the IC50 [1, 7] of the same molecule?
Its IC50 is < 0.1 µM.

And the IC50 [1, 8]?
Its IC50 is < 0.1 µM.

And the IC50 [2]?
The IC50 was < 0.1 µM.

And the IC50 [3]?
Its IC50 is < 0.1 µM.

And the IC50 [4]?
The IC50 was < 0.1 µM.

What about the IC50 [5] of the same molecule?
Its IC50 is < 0.1 µM.

And the “Effect of Exemplary Compounds” value [6]?
The value was “B (B represents 100-1000 nM)”.

What does the source list for `Cc1nc2c(F)c(O)c(-c3ccc4nc(N5CCC(NC6CCC6)C5)ccc4n3)cc2o1` (stereo not shown) [Compound 293, 6-{6-[3-(cyclobutylamino)pyrrolidin-1-yl]-1,5-naphthyridin-2-yl}-4-fluoro-2-methyl-1,3-benzoxazol-5-ol]?
AC50 ([1]; RT-qPCR): < 0.1 µM; IC50 [1, 7]: < 0.1 µM; IC50 [1, 8]: < 0.1 µM; IC50 [2]: < 0.1 µM; IC50 [3]: < 0.1 µM; IC50 [4]: < 0.1 µM; IC50 [5]: < 0.1 µM; Effect of Exemplary Compounds on Cell Viability, K562 [6]: A (A represents <100 nM)

How did the AC50 ([1]; RT-qPCR) turn out when `Cn1cc2cc(-c3ccc4nc(N5CCC(NC67CC(C6)C7)C5)ccc4n3)c(O)cc2n1` (stereo not shown) [Compound 297, 5-[6-(3-{bicyclo[1.1.1]pentan-1-ylamino}pyrrolidin-1-yl)-1,5-naphthyridin-2-yl]-2-methylindazol-6-ol] was run?
The AC50 was 0.1 to 1 µM.

What about the IC50 [1, 7] of the same molecule?
Its IC50 is 1 to 10 µM.

What about the IC50 [1, 8] of the same molecule?
The IC50 was 1 to 10 µM.

What about the IC50 [2] of the same molecule?
The IC50 was 0.1 to 1 µM.

What about the IC50 [3] of the same molecule?
The IC50 was 1 to 10 µM.

What about the IC50 [4] of the same molecule?
The IC50 was 1 to 10 µM.

What about the IC50 [5] of the same molecule?
Its IC50 is 1 to 10 µM.

What about the “Effect of Exemplary Compounds” value [6] of the same molecule?
Its value is “D (D represents greater than 10 μM in K562 cells)”.

Which AC50 ([1]; RT-qPCR) does the source give for `Cn1cc2nc(-c3ccc4nc(N5CCC(NC(C)(C)C)C5)ccc4n3)c(O)cc2n1` (stereo not shown) [Compound 298, 5-{6-[3-(tert-butylamino)pyrrolidin-1-yl]-1,5-naphthyridin-2-yl}-2-methylpyrazolo[4,3-b]pyridin-6-ol] here?
Its AC50 is < 0.1 µM.

What about the IC50 [1, 7] of the same molecule?
Its IC50 is < 0.1 µM.

And the IC50 [1, 8]?
Its IC50 is < 0.1 µM.

What about the IC50 [2] of the same molecule?
Its IC50 is < 0.1 µM.

What about the IC50 [3] of the same molecule?
The IC50 was < 0.1 µM.

And the IC50 [4]?
Its IC50 is < 0.1 µM.

What about the IC50 [5] of the same molecule?
The IC50 was < 0.1 µM.

What about the “Effect of Exemplary Compounds” value [6] of the same molecule?
The value was “B (B represents 100-1000 nM)”.

For `Cn1cc2cc(-c3ccc4nc(N5CC[C@H](N[C@H]6C[C@@H](F)C6)C5)ccc4n3)c(O)cc2n1` [Compound 299, 2-methyl-5-{6-[(3S)-3-{[(1s,3s)-3-fluorocyclobutyl]amino}pyrrolidin-1-yl]-1,5-naphthyridin-2-yl}indazol-6-ol], which AC50 ([1]; RT-qPCR) is on record?
Its AC50 is < 0.1 µM.

What about the IC50 [1, 7] of the same molecule?
The IC50 was < 0.1 µM.

And the IC50 [1, 8]?
Its IC50 is < 0.1 µM.

And the IC50 [2]?
Its IC50 is < 0.1 µM.

What about the IC50 [3] of the same molecule?
Its IC50 is < 0.1 µM.

What about the IC50 [4] of the same molecule?
Its IC50 is < 0.1 µM.

And the IC50 [5]?
The IC50 was 0.1 to 1 µM.

And the “Effect of Exemplary Compounds” value [6]?
Its value is “B (B represents 100-1000 nM)”.
